Where two headings read alike, the source gives them in different places.

Results on four compounds are retold here after article PMC3777193, “Diaryl- and triaryl-pyrrole derivatives: inhibitors of the MDM2–p53 and MDMX–p53 protein–protein interactions” (Medchemcomm, 2013).

The target in one assay is MDM2–p53 (Homo sapiens, UniProt Q00987). As to the kind of experiment: MDM2–p53 ELISA protein–protein binding assay. A general note: In an ELISA, binding on a coated surface is turned into a signal by an enzyme label.
Sequence of MDM2–p53 (Q00987 whole entry): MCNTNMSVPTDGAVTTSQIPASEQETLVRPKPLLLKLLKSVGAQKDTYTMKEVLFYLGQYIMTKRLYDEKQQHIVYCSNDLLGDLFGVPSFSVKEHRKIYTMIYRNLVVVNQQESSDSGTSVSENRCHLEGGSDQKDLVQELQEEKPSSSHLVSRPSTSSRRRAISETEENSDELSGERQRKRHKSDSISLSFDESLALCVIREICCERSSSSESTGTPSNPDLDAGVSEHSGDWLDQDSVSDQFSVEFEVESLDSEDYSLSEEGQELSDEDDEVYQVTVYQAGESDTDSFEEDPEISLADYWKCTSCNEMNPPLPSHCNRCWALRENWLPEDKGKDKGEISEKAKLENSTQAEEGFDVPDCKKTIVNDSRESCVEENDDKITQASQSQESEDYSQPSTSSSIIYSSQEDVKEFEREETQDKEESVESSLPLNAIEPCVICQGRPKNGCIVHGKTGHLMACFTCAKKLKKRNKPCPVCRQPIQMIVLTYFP
Assay [1] can be described thus: Growth inhibitory activity, A2708 (Table S3). The note with it: read-out: GI50 A2708. It counts as cell-based. From the text: (§1) (2 pictures or pasted objects on this page, not shown here)
A further assay has as its system A2780-CP70. Description: Growth inhibitory activity, A2780-CP70 (Table S3). It counts as cell-based. The note with it: A2780/CP70, read-out: GI50 A2780-CP70.
Description: as §1

For another assay, the system named is HCT116. Description: Growth inhibitory activity, HCT116 (Table S3). Format: cell-based. To be noted: Homo sapiens, HCT-116, read-out: GI50 HCT116.
Description: as §1

The next assay concerns HCT116 p53(-/-). As to the kind of experiment: Growth inhibitory activity, HCT116 p53(-/-) (Table S3). Format: cell-based. The note with it: Homo sapiens, HCT-116, read-out: GI50 HCT116 p53(-/-).
Description: as §1

The next assay concerns SJSA-1 cells. Format: cell-based. The note with it: SJSA-1 (MDM2 amplified, p53wt), 5 μM, 4 h.
A further assay has as its system A2780CP70 cells. It counts as cell-based. The note with it: A2780 CP70 (p53 mutant), 0.1, 0.2 and 5 μM, 4 h.
The subject of the next assay is SJSA-1. As to the kind of experiment: Growth inhibitory activity, SJSA-1. To be noted: Homo sapiens, SJSA-1, read-out: GI50 SJSA-1.
Another assay deals with T1, MDMX–p53 (Homo sapiens, UniProt O15151).
T1 construct: host or cells: in vitro coupled T7 transcription and rabbit reticulocyte lysate translation
T1 sequence (O15151 1-490): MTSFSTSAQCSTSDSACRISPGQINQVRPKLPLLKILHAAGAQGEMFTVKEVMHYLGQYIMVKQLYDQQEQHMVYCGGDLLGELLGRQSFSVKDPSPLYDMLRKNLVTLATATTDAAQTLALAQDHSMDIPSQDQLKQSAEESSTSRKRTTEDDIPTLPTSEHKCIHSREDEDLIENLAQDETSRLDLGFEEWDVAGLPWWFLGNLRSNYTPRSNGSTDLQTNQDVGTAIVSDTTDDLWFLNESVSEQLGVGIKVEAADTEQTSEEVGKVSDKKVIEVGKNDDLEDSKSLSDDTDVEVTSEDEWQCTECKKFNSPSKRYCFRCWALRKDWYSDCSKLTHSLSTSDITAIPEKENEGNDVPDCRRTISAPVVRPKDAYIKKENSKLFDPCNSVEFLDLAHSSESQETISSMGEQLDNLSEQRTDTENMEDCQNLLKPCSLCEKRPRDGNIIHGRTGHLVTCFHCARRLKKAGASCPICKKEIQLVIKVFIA
Description: MDMX–p53 ELISA binding assay. The note with it: read-out: MDMX IC50.

For a further assay, the system named is A2780 cells. Format: cell-based. To be noted: A2780 (p53wt), 0.1, 0.2 and 5 μM, 4 h.
Another assay deals with SN40R2. As to the kind of experiment: Growth inhibitory activity, SN40R2. To be noted: read-out: GI50 SN40R2.
Another assay concerns MRK-NU-1. As to the kind of experiment: Growth inhibitory activity, MRK-NU-1. To be noted: Homo sapiens, MRK-nu-1, read-out: GI50 MRK-NU-1.
For the next assay, the system named is MDM2. To be noted: read-out: MDM2–p53 IC50; cited from earlier work.

Description for MRK-NU-1: (§2) Growth inhibitory activity was determined for selected pyrroles in a panel of cell lines with defined MDM2, MDMX and p53 status (Table 5).
Description for SN40R2: as §2

For `Cc1cc(C=C2C(=O)NC(=S)NC2=O)c(C)n1-c1sc2c(c1C#N)CCCC2` [Compound 3, 2-(3-((4,6-dioxo-2-thioxotetrahydropyrimidin-5(2H)-ylidene)methyl)-2,5-dimethyl-1H-pyrrol-1-yl)-4,5,6,7-tetrahydrobenzo[b]thiophene-3-carbonitrile], at MDM2–p53, the half-inhibitory concentration (IC50) is 12.3 µM. Also, the GI50 came to 3.9 ± 0.1 µM in assay [1]; 3.9 ± 0.1 µM with A2780-CP70; 7.8 ± 0.2 µM in the assay on HCT116; 7.7 ± 0.1 µM in the assay on HCT116 p53(-/-); 4.4 ± 0.1 µM with SJSA-1. For the same compound, the “induction of MDM2, p53, and p21 (Western blot)” value (“induction of MDM2, p53, and p21” below) is on record as “clearly visible” with SJSA-1 cells and “no induction” in the assay with A2780CP70 cells.

Consider `O=C1NC(=S)NC(=O)C1=Cc1cc(-c2ccccc2)n(-c2ccc(Cl)cc2)c1-c1ccccc1` [Compound 4c, 5-((1-(4-chlorophenyl)-2,5-diphenyl-1H-pyrrol-3-yl)methylene)-2-thioxodihydropyrimidine-4,6(1H,5H)-dione], for which the half-maximal inhibitory concentration (IC50) worked out at 0.12 ± 0.02 µM on MDM2–p53, 0.11 ± 0.03 µM at MDM2–p53 (read-out: MDM2 IC50) and 4.2 ± 1.2 µM on MDMX–p53. Further, at MDM2–p53, the “fold more potent than the comparable 2,5-dimethyl analogues (4a, 4b)” value is recorded as 5–10 fold. For the same compound, the “induction of MDM2, p53, and p21” value was “clearly visible” in the assay on SJSA-1 cells and “no induction” in the assay with A2780CP70 cells. The “induction of MDM2 and p21 (Western blot)” value in the assay with A2780 cells is reported as “observed”. In addition, the GI50 in the assay with SJSA-1 was 2.3 ± 0.2 µM; with SN40R2, 2.8 ± 0.6 µM; with MRK-NU-1 it was 2.3 ± 0.3 µM.

`O=C1NC(=S)N(c2ccccc2)C(=O)/C1=C/c1cc(-c2ccccc2)n(-c2ccc(Cl)cc2)c1-c1ccccc1` [Compound 4d]: the “fold more potent than the comparable 2,5-dimethyl analogues (4a, 4b)” value on MDM2–p53 is recorded as 5–10 fold. Also, the IC50 on MDM2–p53 (read-out: MDM2 IC50) stood at 0.23 ± 0.044 µM. Also, the entries for the “induction of MDM2, p53, and p21” value in the assay on SJSA-1 cells and with A2780CP70 cells were “clearly visible” and “no induction”, respectively. The “induction of MDM2 and p21 (Western blot)” value with A2780 cells was “observed”.

For `CCOc1cc(C(C)(C)C)ccc1C1=N[C@@](C)(c2ccc(Cl)cc2)[C@@](C)(c2ccc(Cl)cc2)N1C(=O)N1CCN(CCCS(C)(=O)=O)CC1` [RG-7112], the half-inhibitory concentration (IC50) in the assay with MDM2 is 0.012 µM.

By IC50 is commonly meant the concentration at which inhibition is half-maximal.
